According to EP2323645B1, “USE OF LOW-DOSE LOCAL ANAESTHETIC OR DERIVATIVES THEREOF FOR THERAPY OF CHRONIC PAIN, ESPECIALLY MIGRAINE” (priority 2008, dated 2010):

Columns and labels:
Neuralgien = settings: 5 %; Katsushi et al.; cited from earlier work
Kopfschmerzen = settings: 0,5 %, cervical intramuscular injection; Mellick et al. 2006; cited from earlier work
[1] = tested on: Kopfschmerzen vom Spannungstyp; assay: Comparative trial of lidocaine, mepivacaine and bupivacaine in tension-type headache (infiltration anaesthesia C1 to C3); format: in vivo, Patienten; settings: equipotent dilution 1:5 (Lidocain 0,1 Gew.-%, Bupivacain 0,05 Gew.-%, Mepivacain 0,1 Gew.-%), twice daily for 7 days, 3 male patients, 10-point pain scale
chronisches LWS-Syndrom = assay: Treatment of therapy-resistant chronic pain of hips, legs and feet (chronic lumbar spine syndrome); format: in vivo, Patienten; settings: single case, patient, left-sided syndrome for 10 years, repetitive injections L3 to L5 left
From the text: (§1) Art und Umfang der beklagten Schmerzen und Beschwerden bestimmen unter (ausschließlich) neuroanatomischen und funktionspathologischen Gesichtspunkten die ursachenorientierte Auswahl von Injektionsort, Injektionsmenge und Injektionstiefe sowie die Auswahl der verwendeten Injektionskanülen, z.B. innerhalb einer Bandbreite zwischen 20 und 100 mm Länge, bei grundsätzlich identischer, jedoch gegenüber herkömmlicher Verfahrensweise grundlegend veränderter, Injektionstechnik (siehe z.B. Figuren 1 bis 3).
Behandlung: 2 bis 4 tiefe, seitengleiche paravertebrale Injektionen in Gewebe der mittleren und unteren Lendenwirbelsäule bzw. der oberen Kreuzbeinregion (: L3 bis SI alternierend).
Aktueller Fall: • 71-jähriger Patient. Seit 10 Jahren progrediente Krankheitsentwicklung eines chronischen, linksseitigen LWS-Syndroms mit belastungsabhängigen Schmerzen und • Taubheitsgefühl in Oberschenkel und Knie sowie belastungsabhängigem, progredientem Kraftverlust des linken Beines. • Behandlung: Repetitive paravertebrale Injektionen L3 bis L5 links. • Ergebnis: Vollständige Remission aller Beschwerden nach 10 Behandlungssitzungen.

spinaler Nozizeptoren = assay: Blockade of spinal nociceptors in healthy volunteers; format: in vivo, gesunden Probanden
From the text: Die Verabreichung des hier beschriebenen niedrig-dosierten Lidocains oder eines 3-OH-oder 4-OH-Derivats davon in den hier beschriebenen niederen Konzentrationen, z.B. in der erfindungsgemäßen pharmazeutischen Zusammensetzung, kann, insbesondere in der Migräne-Therapie, durch Infiltrations-Anästhesie stattfinden, bspw. durch gezielte, simultane Infiltrations-Anästhesien an der Schädelbasis (ventrale Äste von C1) sowie der ventralen Äste der Spinal-Nerven C2 und C3 unter Anwendung einer pharmakologisch und technisch ziel- und zweckoptimierten Methode. Unter Einsatz der erfindungsgemäßen pharmazeutischen Zusammensetzungen lassen sich die oben beschriebenen Migräne-Schmerzen sowie die Symptome einer vestibulären Dysfunktion - Übelkeit und Schwindel - unabhängig von der vorbestehenden Anfallsdauer einer Migräne spontan und definitiv abortieren. Die Konzentration des dafür verwendeten Lidocains oder eines 3-OH- oder 4-OH-Derivats davon in der erfindungsgemäßen pharmazeutischen Zusammensetzung ist bevorzugt so eingestellt, dass keine motorischen oder Sensibilitäts-Störungen auftreten.

[2] = tested on: Menstruationsbeschwerden (Menorrhagien); settings: as a rule after two to four further identical sessions
Trigeminusneuralgie = assay: Treatment of trigeminal neuralgia; format: in vivo, Patienten; settings: superficial wide-area injection of the affected nerve branch; as a rule; rarely one or two repeat injections needed
From the text: as §1
Behandlung: Oberflächliche, großflächig ausgebrachte Injektion des betroffenen Nervenastes am Ort seiner stärksten Irritation;

Occipitalisneuralgie = assay: Treatment of occipital neuralgia; format: in vivo, Patienten
From the text: as §1
Behandlung: Je nach Untersuchungsbefund oberflächliche, großflächig ausgebrachte oder tiefe Injektionen des bzw. der betroffenen Nervenäste;

Migräne = assay: Treatment of migraine by local deep paravertebral injection of low-dose lidocaine; format: in vivo, Patienten; settings: 0,1 Gew.-% in Ringer solution, usually 2 to 4 injections per session; within a few minutes; complete freedom from pain and complaints without typical relapse tendency
From the text: as §1
(§2) Vor Behandlungsbeginn werden mit Ausnahme von Benzodiazepinderivaten sämtliche "schmerz- und beschwerdespezifische" Medikamente spontan abgesetzt. Benzodiazepinderivate werden schleichend eliminiert.
Anzahl der Injektionen und Injektionsorte sind abhängig vom aktuellen Untersuchungsbefund sowie von Patientenangaben zu Schmerzen und Beschwerden. Bevorzugt werden tiefe paravertebrale Injektionen von dorsal in antero-lateraler Stichführung in Gewebe der oberen Halswirbelsäule (s. Figur 2) oder der oberen Brustwirbelsäule (s. Figur 1) vorgenommen, je Behandlungssitzung in der Regel 2 bis 4 Injektionen.
(s. Figur 2: Einstichpunkte im Bereich der oberen und mittleren Halswirbelsäule) • Ergebnis: Der Patient war nach 2 ½ Behandlungstagen und seither dauerhaft schmerz- und beschwerdefrei.

chronischer Migräne = assay: Retrospective analysis of 84 chronic migraine patients treated with repeated deep dorsal cervico-thoracic sympathetic blocks; settings: for Rückgang aller Schmerzen und Begleitsymptome auf: end of treatment
[3] = tested on: episodischer und chronischer Kopfschmerzen vom Spannungs-Typ; assay: Treatment of episodic and chronic tension-type headache; format: in vivo, Patienten
From the text: as §1, §2
Behandlung: Die Anzahl der Injektionen und Injektionsorte sind abhängig vom aktuellen Untersuchungsbefund sowie von Patientenangaben zu Schmerzen und Beschwerden. Bevorzugt werden tiefe paravertebrale Injektionen in Gewebe der oberen und mittleren Halswirbelsäule vorgenommen, je Behandlungssitzung in der Regel 6 bis 8 Injektionen mit gegenüber der vorbeschriebenen Migräne-Behandlung geringerer Einstichtiefe.

[4] = tested on: therapieresistenter chronischer Schulter-Arm-Schmerzen; assay: Treatment of therapy-resistant chronic shoulder-arm pain; format: in vivo, Patienten; settings: 2 to 4 deep paravertebral injections, middle cervical spine, 0,1 Gew.-%
From the text: as §1
Behandlung: 2 bis 4 tiefe, seitengleiche paravertebrale Injektionen in Gewebe der mittleren Halswirbelsäule.

chronischer Verletzungen = assay: Treatment of chronic injuries
[5] = tested on: akuter kleinflächiger Verletzungen; assay: Treatment of acute small-area injuries
[6] = tested on: Phantom- oder Stumpfschmerz; settings: 0,1 - 1,0 ml of 1 % solution; Gross, Anaesthesist 1985; cited from earlier work
[7] = tested on: neuropathischen Schmerzen; settings: 0.2 %, repeated epidural administration, rat model; Chiyo et al. 2008; cited from earlier work

CCCCNc1ccc(C(=O)OCCN(C)C)cc1 [Tetracain]
Behandlungsergebnis (Neuralgien): effektive Behandlung

CCCCN1CCCCC1C(=O)Nc1c(C)cccc1C (centres unmarked) [Bupivacain]
Behandlungsergebnis (Kopfschmerzen): erfolgreich behandelt | Wirkung und Therapieeffekt gegenüber Lidocain [1]: etwa vergleichbare Wirkung und Therapieeffekt

CCN(CC)CC(=O)Nc1c(C)cccc1C [Lidocain]
Vollständige Remission aller Beschwerden nach (chronisches LWS-Syndrom): 10 Behandlungssitzungen | Beeinträchtigung der Sensibilität (spinaler Nozizeptoren): ohne Beeinträchtigung der Sensibilität | Blutungsmenge und Blutungsdauer [2]: vollständige Normalisierung | Ergebnis (Trigeminusneuralgie): Spontan-Remission | Ergebnis Tiefe Nervenäste (Occipitalisneuralgie; deep nerve branches, repeat injections necessary): eher verzögert | Ergebnis oberflächliche Nervenäste (Occipitalisneuralgie; superficial nerve branches, as a rule, rarely one or two repeat injections): Spontan-Remission | Anfallsdurchbrechung (Migräne): vollständige Anfallsdurchbrechung | Rückgang aller Schmerzen und Begleitsymptome auf (chronischer Migräne; 4-week treatment group (n=21)): 3,2% | Rückgang aller Schmerzen und Begleitsymptome auf (chronischer Migräne; 5-week treatment group (n=43)): 1,1% | Rückgang aller Schmerzen und Begleitsymptome auf (chronischer Migräne; 6-week treatment group (n=20)): 1,0% | lang anhaltender therapeutischer Effekt (chronischer Migräne; after end of the treatment period, together with instructions on posture and lifestyle): mindestens einigen Jahren | Rückgang der Gesamtsummen aller Schmerz-Intensitäten und Migräne-Begleitsymptome auf (chronischer Migräne; end of first week, all treatment periods of 4, 5 or 6 weeks, relative to last severe attack without medication, twice daily): < 10% | Kopfschmerzen vom Spannungs-Typ (chronischer Migräne; patients with concomitant tension-type headache): schrittweise bis zum Ende jeder Behandlungs-Periode beseitigt | Allgemeinbefinden (chronischer Migräne; under treatment): positive Zunahme | Ergebnis der Repetition der Behandlung ([3]; repeated treatment, stepwise lengthening of pain-free intervals): dauerhaften Schmerzfreiheit | Sensibilitätsstörungen ([3]; typical case, 0,1 Gew.-%): ohne die von Injektionen mit herkömmlicher Lokalanästhetika-Konzentration bekannten Sensibilitätsstörungen | Remission von Schmerzen und Beschwerden [4]: Spontane Remission | Sensibilitätsstörungen (chronischer Verletzungen; in vivo): ohne Sensibilitätsstörungen | Remission (chronischer Verletzungen; multiple repetition at 24-hour intervals): schrittweisen und i.d.R. vollständigen Remission | Schmerzreduktion (chronischer Verletzungen; targeted injections into the traumatised tissue): spontane Schmerzreduktion | Sensibilitätsstörungen ([5]; in vivo): ohne Sensibilitätsstörungen | (Wund-)Heilungsdauer ([5]; one or two repetitions at 24-hour intervals, as a rule): Halbierung der sonst üblichen (Wund-)Heilungsdauer | Schmerzfreiheit ([5]; superficial injections into the traumatised tissue): spontane Schmerzfreiheit

Cc1cccc(C)c1NC(=O)C1CCCCN1C (centres unmarked) [Mepivacain]
Patienten nachweisbar effektiv behandelt [6]: ca. 80% | Wirkung und Therapieeffekt gegenüber Lidocain [1]: etwa vergleichbare Wirkung und Therapieeffekt

CCCN1CCCC[C@H]1C(=O)Nc1c(C)cccc1C [Ropivacain]
analgetischer Effekt [7]: lang anhaltenden analgetischen Effekt
